Assay type in all cases: cell-based
One experiment deals with T1, Edg 1/3(ct) (Homo sapiens, UniProt P21453, N315S).
T1 construct: DNA encoding the full length Edg 1/3(ct) chimera was produced in a secondary PCR reaction; expressed in transfected cells
Briefly: Intracellular calcium mobilization (FLIPR) in HTC4 cells expressing Edg 1/3(ct). Particulars: 100 nM S1P, FIG. 4. As to the method: (§1) Media from GP-293 cells was collected and filtered through a […] PES syringe filter to remove cell debris. Polybrene (hexadimethrine bromide, Sigma) was added to each virus laden supernatant to a final concentration of […]. After removing the culture medium from the target cells, the virus-laden medium was used to overlay the host cell line HTC4 (rat hepatoma cell line; from Ed Goetzl, UCSF). Following infection, cells were incubated for 18–24 hours. Cells resistant to antibiotic (Geneticin, G418, […], Sigma) were selected. Clonal populations were selected from the pooled stable cells using a standard limiting dilution technique (adapted from “Antibodies: A Laboratory Manual”; 1988, Harlow, E. and Lane, D., Cold Spring Harbor Laboratory, New York).
(§2) HTC4 rat hepatoma cells stably transfected with Edg 1, Edg 1/3(ct), Edg1/3(i3ct) or Edg1/3(i2i3ct) according to Example 6.7 were plated on 384-well plates and loaded with a calcium dye loading kit (Molecular Devices, Sunnyvale, Calif.) for 1 hour at room temperature. Cells were then placed on FLIPR^384 (Molecular Devices, Sunnyvale, Calif.) and excited by an argon laser at 488 nm. In this assay, fluorescence changes over basal levels indicate an increase in intracellular calcium. In FIG. 2, basal fluorescence is at 0 (arbitrary units). […]
In general terms: Calcium assays in cells follow changes in intracellular calcium, usually with a dye or a luminescent sensor.

The target of a further experiment is T2, Edg1/3(i2i3ct) (Homo sapiens, UniProt P21453, DEL241-247/F158H/F237N/G154A/H152Y/I144L/K150R/K239N/K250R/K256R/L147I/L151P/L235V/L252M/N153D/N156K/N157R/N315S/R231S/R234K/R238H/S155N/T230S/T236A/Y143H).
T2 construct: DNA encoding the full length Edg 1/3(i2i3ct) chimera was then produced in a tertiary PCR reaction; expressed in transfected cells
T2 sequence (P21453 with tags, fused parts or gaps with the stated changes): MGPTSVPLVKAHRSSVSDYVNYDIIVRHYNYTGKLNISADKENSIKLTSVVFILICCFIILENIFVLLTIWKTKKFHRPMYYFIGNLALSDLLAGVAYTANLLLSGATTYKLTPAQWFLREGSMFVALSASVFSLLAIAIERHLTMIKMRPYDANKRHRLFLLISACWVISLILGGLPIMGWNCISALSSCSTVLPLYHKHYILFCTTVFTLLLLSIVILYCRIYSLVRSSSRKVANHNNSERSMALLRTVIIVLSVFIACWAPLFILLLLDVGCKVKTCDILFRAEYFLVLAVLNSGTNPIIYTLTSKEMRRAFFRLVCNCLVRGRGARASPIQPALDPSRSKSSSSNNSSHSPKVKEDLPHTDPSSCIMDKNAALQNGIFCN
Briefly: Intracellular calcium mobilization (FLIPR) in HTC4 cells expressing Edg1/3(i2i3ct). Particulars: 100 nM S1P, FIG. 2. Here is the method: as §1, §2

Another experiment has as its target T3, Edg8/4(ct) (Homo sapiens, UniProt Q9H228).
T3 construct: DNA encoding the full length Edg 8/4(ct) chimera was produced in a secondary PCR reaction; expressed in transfected cells
Briefly: Intracellular calcium mobilization (FLIPR) in HTC4 cells expressing Edg8/4(ct). Particulars: 100 nM S1P, FIG. 5. As to the method:
as §1
(§3) HTC4 rat hepatoma cells stably transfected with Edg5/3(i3ct) and Edg8/4(ct) according to Example 6.7 were plated on 384-well plates and loaded with a calcium dye loading kit (Molecular Devices, Sunnyvale, Calif.) for 1 hour at room temperature. Cells were then placed on FLIPR^384 (Molecular Devices, Sunnyvale, Calif.) and excited by an argon laser at 488 nm. In this assay, fluorescence changes over basal levels indicate an increase in intracellular calcium. […] The cells were contacted with 100 nM of the Edg 5 and Edg 8 agonist sphingosine-1-phosphate (S1P) 50 seconds after the start of the assay.

The next experiment has as its target Edg 1 (Homo sapiens, UniProt P21453). Briefly: Intracellular calcium mobilization (FLIPR) in HTC4 cells expressing Edg 1. The conditions noted are these: 100 nM S1P, FIG. 2. Here is the method:
as §1, §2

A further experiment concerns the target T4, Edg5/3(i3ct) (Homo sapiens, UniProt O95136, A221R/A225S/D222K/F113S/H220S/INS224NHNN/K233R/L229M/M223V/P226E/Q227R/R217K/T228S).
T4 construct: DNA encoding the full length Edg 5/3(i3ct) chimera was then produced in a tertiary PCR reaction; expressed in transfected cells
As to the kind of experiment: Intracellular calcium mobilization (FLIPR) in HTC4 cells expressing Edg5/3(i3ct). The conditions noted are these: 100 nM S1P, FIG. 5. Here is the method:
as §1, §3

Experiment [1] deals with T5, Edg1/3(i3ct) (Homo sapiens, UniProt P21453, DEL241-247/F237N/K239N/K250R/K256R/L235V/L252M/N315S/R231S/R234K/R238H/T230S/T236A).
T5 construct: DNA encoding the full length Edg 1/3(i3ct) chimera was then produced in a tertiary PCR reaction; expressed in transfected cells
T5 sequence (P21453 with tags, fused parts or gaps with the stated changes): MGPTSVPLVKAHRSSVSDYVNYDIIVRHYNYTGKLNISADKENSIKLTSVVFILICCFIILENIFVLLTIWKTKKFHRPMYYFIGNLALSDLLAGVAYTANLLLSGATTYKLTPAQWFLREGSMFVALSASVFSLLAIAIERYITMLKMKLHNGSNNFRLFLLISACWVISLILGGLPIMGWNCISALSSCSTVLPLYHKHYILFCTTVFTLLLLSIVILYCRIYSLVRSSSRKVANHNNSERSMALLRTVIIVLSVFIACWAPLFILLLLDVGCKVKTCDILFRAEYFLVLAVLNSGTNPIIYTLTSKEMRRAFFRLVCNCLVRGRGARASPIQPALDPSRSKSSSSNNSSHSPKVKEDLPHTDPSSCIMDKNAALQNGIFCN
As to the kind of experiment: Intracellular calcium mobilization (FLIPR) in HTC4 cells expressing Edg1/3(i3ct), single concentration. Particulars: 100 nM S1P, FIG. 2. Here is the method:
as §1, §2

The target in experiment [2] is T5, Edg1/3(i3ct). Briefly: Dose response of intracellular calcium mobilization (FLIPR) in HTC4 cells expressing chimeric Edg1/3(i3ct).

Like-named read-outs stand apart in the source and are kept apart here.

The term EC50 denotes the concentration needed to bring the measured effect to its halfway point.

T4 sequence (O95136 with tags, fused parts or gaps with the stated changes): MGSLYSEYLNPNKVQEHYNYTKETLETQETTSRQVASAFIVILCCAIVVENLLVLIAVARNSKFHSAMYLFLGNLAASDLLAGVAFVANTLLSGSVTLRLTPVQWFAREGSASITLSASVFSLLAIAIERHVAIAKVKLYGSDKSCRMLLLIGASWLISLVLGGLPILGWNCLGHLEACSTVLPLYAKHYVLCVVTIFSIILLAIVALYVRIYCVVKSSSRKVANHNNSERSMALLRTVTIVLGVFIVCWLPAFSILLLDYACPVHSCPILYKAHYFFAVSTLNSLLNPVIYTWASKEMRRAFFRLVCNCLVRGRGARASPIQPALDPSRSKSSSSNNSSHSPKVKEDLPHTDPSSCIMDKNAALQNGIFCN
T3 sequence (Q9H228 with tags, fused parts or gaps): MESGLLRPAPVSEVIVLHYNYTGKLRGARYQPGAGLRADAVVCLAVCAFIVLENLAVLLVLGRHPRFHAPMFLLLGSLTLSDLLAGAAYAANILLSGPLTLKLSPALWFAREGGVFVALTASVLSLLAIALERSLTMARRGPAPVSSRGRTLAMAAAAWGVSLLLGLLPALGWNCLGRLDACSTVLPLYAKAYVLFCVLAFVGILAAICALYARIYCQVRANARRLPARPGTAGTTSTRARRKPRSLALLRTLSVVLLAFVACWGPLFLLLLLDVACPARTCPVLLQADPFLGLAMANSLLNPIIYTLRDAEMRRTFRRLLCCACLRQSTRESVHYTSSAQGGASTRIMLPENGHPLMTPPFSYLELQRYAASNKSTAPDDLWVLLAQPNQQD
T1 sequence (P21453 with tags, fused parts or gaps N315S): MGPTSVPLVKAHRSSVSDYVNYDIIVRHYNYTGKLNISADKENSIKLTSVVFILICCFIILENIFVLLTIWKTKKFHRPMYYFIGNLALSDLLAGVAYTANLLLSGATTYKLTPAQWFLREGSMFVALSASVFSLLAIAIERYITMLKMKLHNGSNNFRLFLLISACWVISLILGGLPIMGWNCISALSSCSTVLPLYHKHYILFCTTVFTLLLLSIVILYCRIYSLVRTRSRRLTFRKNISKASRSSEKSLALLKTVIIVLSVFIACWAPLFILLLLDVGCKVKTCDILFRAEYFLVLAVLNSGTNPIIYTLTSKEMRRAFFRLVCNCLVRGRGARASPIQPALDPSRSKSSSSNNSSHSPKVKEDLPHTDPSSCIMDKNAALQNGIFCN
Sequence of Edg 1 (P21453 whole entry): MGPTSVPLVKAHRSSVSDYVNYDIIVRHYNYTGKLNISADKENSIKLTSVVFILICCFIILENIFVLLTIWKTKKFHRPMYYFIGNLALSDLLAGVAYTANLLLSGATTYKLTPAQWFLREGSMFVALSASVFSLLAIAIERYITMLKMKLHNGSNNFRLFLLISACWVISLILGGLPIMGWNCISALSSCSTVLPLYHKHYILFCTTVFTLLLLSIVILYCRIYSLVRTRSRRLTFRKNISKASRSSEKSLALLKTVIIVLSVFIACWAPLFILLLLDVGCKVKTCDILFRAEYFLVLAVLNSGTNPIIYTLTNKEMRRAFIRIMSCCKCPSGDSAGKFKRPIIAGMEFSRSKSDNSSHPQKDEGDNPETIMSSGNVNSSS

In the case of `CCCCCCCCCCCCC/C=C/[C@@H](O)[C@@H](N)COP(=O)(O)O` [S1P, sphingosine-1-phosphate], the intracellular calcium mobilization result at Edg 1/3(ct) is “functional, although not as robust as Edg1/3(i3ct) or Edg1/3(i2i3ct)”; on Edg8/4(ct), “mobilize intracellular calcium”; at Edg5/3(i3ct), “mobilize intracellular calcium”. Also, the “change in intracellular calcium” value is reported as “significant change in intracellular calcium” on Edg1/3(i2i3ct), “no change in intracellular calcium” at Edg 1 and “significant change in intracellular calcium” at Edg1/3(i3ct) [1]. Further, the EC50 on Edg1/3(i3ct) [2] was approximately 10 nM.
Take `CCCCCCCCCCCCCCC[C@@H](O)[C@@H](N)COP(=O)(O)O` [dihydro S1P, dihydro sphingosine-1-phosphate]: the concentration giving a half-maximal response (EC50) on Edg1/3(i3ct) [2] (HTC4 rat hepatoma cells stably transfected with Edg1/3(i3ct), FIG. 3, read-out: EC50 of intracellular calcium mobilization) is approximately 10 nM.
